≈ marks a conversion by molar mass, not a printed value. Read-outs that look alike come from different tables or passages of the source.
Assays:
[1] = system: phospholipid vesicles (PC, PG, PE-PG mix, E. coli total, E. coli polar); test: Vesicle membrane binding assay (FP), comparison across the five vesicle types; details: SSA 0.15 mM, in words
From the text: For intrinsically fluorescent SSAs 5, 6 and 8–12, FP titration experiments enabled the observation of SSA: phospholipid vesicle interactions. Here, an increase in FP value indicates an increase in the apparent size of the SSA as it interacts with the phospholipid vesicle.
The results of these studies have been summarised for convenience in Table 3 however, specific SSA: phospholipid vesicle interactions are also exemplified within Fig. 8. […] Here phospholipid vesicle selectivity appears to be driven by the presence of a methyl substituent appended from the benzothiazole unit, in addition to a urea-methyl/ethyl spacer-anionic functionality. Interesting the presence of the thiourea group, increasing SSA […] and increasing hydrogen bond donor acidity, while increasing the levels of vesicle interaction overall, decreased any specific SSA selectivity. […]
Fluorescence polarisation: Lipid films were resuspended in Buffer (150 mM KCl, 10 mM HEPES, pH 7.4, 2 mM EGTA) and subjected to 9 freeze-thaw cycles in liquid nitrogen and extruded 20 times through a 200 nm polycarbonate membrane. Black bottom 96-well plates were prepared by serially diluting desired vesicle solution across the plate, the appropriate SSA solution (100 µL, 0.15 mM) was added to each well to give a total well volume of 200 µL. Fluorescent SSA solutions were set to a FP value of 100 mP. Data were acquired in endpoint mode. […]
1H NMR CPMG: 1H NMR CPMG3,4 spectra were obtained with a Bruker Avance III […] spectrometer equipped with a TCIP cryoprobe at 298 K. Samples were supplemented with 5 % D 2O and 0.02 mM 4,4-dimethyl4-silapentane-1-sulfonic acid (DSS). […]
The P1 pulses were 9 µs at a power of 7.9 W. Presaturation was applied between acquisitions for 100 ms at a power level of 280 mW and acquisition was carried out of 85 2 µs. Water […]
180 o pulses of 1 ms. Repetition times were chosen to achieve suitable water suppression with the presat and watergate sequences used in 95 % H2O solution. The length of the CPMG element was chosen to achieve good differentiation between unbound and strongly bound ligands. Data was collected with 16,384 points and a spectral width of 16.0242 ppm, receiver gain was set to 128, with 512 scans, 8 dummy scans and an acquisition time of 0.85 s. Data was processed using MestreNova software. All spectra were automatically phased, baselined corrected using a polynomial function and calibrated to the centre of the DSS peak.
Fitting of 1H NMR CPMG data: The data was fit to Michaelis Menten and Hill plot models and compared through R2 analysis using Origin 2022 software,5 growth/sigmoidal category, Hill/MichaelisMenten function, Levenberg Marquardt iteration algorithm. Vmax fixed to 100 % as this was the greatest proportion of SSA that could be coordinated to the nanodiscs. […]

MRSA USA300 [2] = details: n = 3, 0.5 McFarland standard, after 900 min, number in bracket = efficacy rank; cited from earlier work
MRSA USA300 [3] = test: MIC50 determination and initial screening from OD600 growth curves, MRSA USA300; type: cell-based, Staphylococcus aureus
From the text: The antimicrobial activity of SSAs 1–14 was established against both a model Gram-positive, clinically relevant methicillin resistant Staphylococcus aureus (MRSA), and a model Gram-negative, E. coli bacteria, Table 1. Here MIC50 values are given in mM to enable the derivation of molecular structure: antimicrobial efficacy: physical property relationships. […]
Data were acquired in endpoint mode. […]
Section 3: Microbial Methods
These methods were taken directly from UK Health and Security Office (UKHSA) standard operating […]
Preparation of Luria Broth media (LB): Yeast extract (5 g), tryptone (10 g) and sodium chloride (10 g) were dissolved in dH₂O (1 L) then divided into bottles and autoclaved.
Preparation of Luria Broth (LB) agar plates: Agar (6 g) was added to LB (400 mL) and autoclaved. Once cool, the LB agar was poured into sterile petri dishes under sterile conditions and allowed to set. LB plates were stored at 4 °C until use.
Preparation of bacterial plates: Sterile LB agar plates were streaked using Escherichia coli DH10B or USA300 Methicillin-Resistant Staphylococcus aureus then incubated at 37 °C overnight.
Preparation of Inoculum: An initial culture was made up by inoculating LB media (5 mL) with a single colony of bacteria under sterile conditions and incubated at 37 °C with shaking overnight. The following day, overnight bacterial cultures were subcultured into fresh LB medium to a starting OD600 […]
Preparation of 96 well microplate for screening: 20 mM solutions of each compound to be tested were made up using 5 % ethanol. The 1:100 cell suspension (150 µL) was pipetted into the wells and SSA compound solutions (30 µL) were added into each well. The final screening concentration for each compound was 3.3 mM in the well. These were incubated for 20 hours in a plate reader, with optical density readings being taken at 600 nm every 15 minutes. Optical density readings were plotted against time to produce growth curves. […]
individual wells under sterile conditions. Compounds (30 µL) were added to the wells to equal a total volume of 180 µL in the wells. Six repeats of each concentration for each compound were created each plate. The plates were sealed using parafilm, then incubated at 37°C in a microplate reader for 18-25 hours. Optical density readings were taken at 600 nm every 15 min. Data was used to generate […]
Calculation of MIC50: Growth curves were plotted using OD600 optical density readings in Microsoft ® Excel ® 2013. OD600 optical density readings 900 minutes from the start of each of these growth cultures for each concentration of compound were plotted in Origin ® 2015. The resultant curve was normalized and fitted using the Boltzmann fit to define the MIC50 values for each compound.

[4] = Critical micelle concentration from surface tension measurements (pendant drop); type: physicochemical; details: 19 : 1 H2O : EtOH solution at 298 K
From the text: Section 2: General Methods
General remarks: A positive pressure of nitrogen and oven dried glassware were used for all reactions.
All solvents and starting materials were purchased from known chemical suppliers or available stores and used without any further purification unless specifically stipulated. The NMR spectra were obtained using a Burker AV2 400 MHz, AVNEO 400 MHz or Avance III […] spectrometer. The data was processed using ACD Labs or MestreNova software. NMR Chemical shift values are reported in parts per million (ppm) and calibrated to the centre of the residual solvent peak set (s = singlet, br = broad, d = doublet, t = triplet, q = quartet, m = multiplet). Fluorescence and fluorescence polarisation measurements were conducted using a Clariostar plate reader and analysed using MARS data analysis […]
Tensiometry Studies: All the samples were prepared in an EtOH:H2O (1:19) solution. All samples underwent an annealing process in which the various solutions were heated to approximately 40 °C before being allowed to cool to room temperature, allowing each sample to reach a thermodynamic minimum. All samples were prepared through serial dilution of the most concentrated sample. Three surface tension measurements were obtained for each sample at a given concentration, using the […]
pendant drop method. […]
Data

[5] = Staphylococcus aureus, 15 h, Table S3, conversion of the mM values of Table 1, MRSA USA300, after 900 mins
[6] = Staphylococcus aureus, 15 h, MRSA USA300, n = 3, 0.5 McFarland standard, after 900 min, number in bracket = efficacy rank, SSA 11 estimated due to data quality

Row | MIC50 (MRSA USA300 [3]; [5]) [µg/mL] | MIC50 (MRSA USA300 [3]; [6]) [µM] | SMILES | SSA: phospholipid vesicle interaction / selectivity (FP titration) [1] | MIC50 MRSA (MRSA USA300 [2]) | further results
1 | 576 |  | Cc1ccc2nc(-c3ccc(NC(=O)NCS(=O)(=O)O)cc3)sc2c1 [SSA 6] | limited selectivity with a preference for PC, PG and E. coli polar over the E. coli total and PG : PE mix | 0.93(4) mM | 
2 | 599 |  | O=C(NCS(=O)(=O)O)Nc1ccccc1-c1nc2ccccc2s1 [SSA 5] |  | 0.99(5) mM | 
3 | 696 | 1150 | O=C(NCS(=O)(=O)O)Nc1ccc(-c2nc3ccccc3s2)cc1 [SSA 8] | little selectivity for different phospholipid membranes |  | CMC ([4]; unit printed in Figs S37-S40, not in Table 3, listed as 8): 5.2 mM; CMC ([4]; unit printed in Figs S37-S40, not in Table 3, listed as compound 8): 5.16 mM
4 | 574 |  | O=C(O)CNC(=O)Nc1ccc(C(F)(F)F)cc1 [SSA 4] |  | 1.14(6) mM | 
5 |  |  | Cc1ccc2nc(-c3ccc(NC(=S)NCS(=O)(=O)O)cc3)sc2c1 [SSA 12] | strong interaction with all phospholipid vesicles tested |  | CMC ([4]; unit given in Figs S37-S40, not in Table 3): 4.6 mM
6 | 760 | 1200 | Cc1ccc2nc(-c3ccc(NC(=O)NCCC(=O)O)cc3)sc2c1 [SSA 9] |  |  | CMC ([4]; unit printed in Figs S37-S40, not in Table 3, listed as 9): 1.9 mM; CMC ([4]; unit printed in Figs S37-S40, not in Table 3, listed as compound 9): 1.92 mM
7 | 248 |  | O=C(NCS(=O)(=O)O)Nc1ccc(C(F)(F)F)cc1 [SSA 1] |  | 0.46(2) mM | 
8 | 382 | 590 | Cc1ccc2nc(-c3ccc(NC(=O)NCCCS(=O)(=O)O)cc3)sc2c1 [SSA 10] | little selectivity for different phospholipid membranes |  | CMC ([4]; unit printed in Figs S37-S40, not in Table 3, listed as 10): 14.8 mM; CMC ([4]; unit printed in Figs S37-S40, not in Table 3, listed as compound 10): 14.77 mM
9 |  |  | Cc1ccc2nc(NC(=O)NCS(=O)(=O)O)sc2c1 [SSA 7] |  |  | inhibition at 3300 µM (MRSA USA300 [3]; Staphylococcus aureus, 15 h, 3.3 mM, after 900 min, read-out: initial antimicrobial screening, inhibition of growth, MRSA): < 10%; initial antimicrobial screening outcome, MRSA (MRSA USA300 [3]; Table S3, screening at 3.3 mM): Fail
10 | 181 to 367 | 310 to 630 | Cc1ccc2nc(-c3ccc(NC(=O)NCC(=O)O)cc3)sc2c1 [SSA 11] |  |  | CMC ([4]; unit printed in Figs S37-S40, not in Table 3, listed as 11): 3.0 mM; CMC ([4]; unit printed in Figs S37-S40, not in Table 3, listed as compound 11): 3.03 mM
11 |  |  | O=C(NCS(=O)(=O)O)Nc1ccc(C(F)(F)F)cc1 [SSA 3] |  | 0.35(1) mM | MIC50 MRSA (MRSA USA300 [3]; Table S3, conversion of the mM values of Table 1, MRSA USA300, after 900 mins): 132 µg/mL (≈ 443 µM)

From article PMC9400670, “Establishing the selective phospholipid membrane coordination, permeation and lysis properties for a series of ‘druggable’ supramolecular self-associating antimicrobial amphiphiles” (Chemical Science, 2022)
